Like-named read-outs stand apart in the source and are kept apart here. Where a SMILES comes first, the peptide text is derived from it. [ ]: non-standard residue; d: D form. Sar = CNCC(=O)O
How the values were obtained:
[1] = tested on: Caco-2 cell monolayers
Protocol: (§1) Uptake and permeability of each compound was measured in the apical-to-basolateral direction, with and without vehicle.
(§2) Each compound was tritiated. ^14C-mannitol was used as an evaluation of monolayer/cell integrity (i.e. as a low uptake/permeability marker).
(§3) Uptake and Permeability Assessments. Compound cellular uptake into and permeability across Caco-2 monolayers was measured.
(§4) Monolayer integrity was monitored using ^14C-mannitol permeability. Mannitol uptake was also studied.
(§5) ^14C-mannitol and ^3H-drugs were quantified by liquid scintillation counting. For uptake studies, at designated time points (10 sec, 60 sec, and 5 min), the donor solution was aspirated off. The cell monolayer was washed twice with ice cold HBSS to remove any residual binding and then dissolved in 1 ml of the cell solubilizing agent, Solvable®. The cell lysate (0.5 ml) was added to 5 ml scintillation cocktail (Econosafe®) and counted on liquid scintillation counter (Beckman LS5801, Columbia, Md.). For permeability studies, 0.5 ml of received solution was added to 5 ml scintillation cocktail (Econosafe®) and counted on liquid scintillation counter.
(§6) Permeability (3) in each experiment was calculated (FIG. 8-12) using eq 1: [formula] where P is permeability, dM/dt is rate of drug mass accumulation (i.e., radioactivity) in receiver compartment, A is area, and Cd is donor drug concentration (i.e., radioactivity). […] Permeability is an absolute measure (units of cm/Sec or velocity) and can be determined even though the absolute drug concentrations were not known.

[2] = tested on: Caco-2 cell monolayers; remark: listed apart in the source
Protocol: as §1, §2, §3, §4, §5
(§7) Since saturated solutions of unknown concentration of drugs were used, absolute uptake could not be calculated.

[3] = tested on: Caco-2 cell monolayers; assay: Cellular uptake of tritiated drugs and 14C-mannitol into Caco-2 monolayers, with and without vehicle; details: saturated solutions, AES-14 / blank AES-14 vs HBSS, up to 5 min
Protocol: as §1, §2, §3, §4, §5, §7

[4] = tested on: Caco-2 cell monolayers; assay: Caco-2 permeability, apical to basolateral, with and without vehicle; details: no vehicle vs with vehicle, 5 min period (FIG. 8-12)
Protocol: as §1, §2, §3, §4, §5, §6

NC(=O)C[C@H](N)C(=O)O [L-asparagine] was tested, and the “effect of Aesgen-14 vehicle on Caco-2 permeability (in words)” value (from here on “effect of Aesgen-14 vehicle”) [1] was “no effect”.

OC[C@@H](O)[C@@H](O)[C@H](O)[C@H](O)CO [Mannitol, mannitol] was tested, and the “effect of vehicle on mannitol permeability (in words)” value [1] was “no effect” and the “effect of vehicle on mannitol relative uptake (in words)” value [2] was “no effect”.

For CN(CC(=O)O)C(=O)CN [glycylsarcosine] (H-Gly-[Sar]-OH), the “enhancement of cellular drug uptake by vehicle (relative uptake vehicle vs HBSS)” value [3] was “about four-fold” and the “effect of Aesgen-14 vehicle” value [4] was “no effect”.

NC(=O)CC[C@H](N)C(=O)O [L-glutamine] was tested, and the “effect of Aesgen-14 vehicle” value [1] was “no effect” and the “enhancement of cellular uptake by vehicle” value [2] was “To perhaps a lesser extent, vehicle enhanced”.

— patent US20080021106A1, “CELLULAR UPTAKE OF BIOACTIVE AGENTS” (Aesgen, Inc., priority 1999, published 2008)
